# Earlier results in patent US12403113B2, “Composition containing creatine fatty ester for use in medicine” (COMMISSARIAT À L'ÉNERGIE ATOMIQUE ET AUX ÉNERGIES …, priority 2019, dated 2025).
# What was measured:
# CrT−/y mice = conditions: 0.02 mg/g body/weight/day for 5 days, intracerebroventricular; preliminary
# [1] = tested on: Huntington's disease patients; conditions: 8 g/day for 16 weeks, 64 patients
# CTD patients = conditions: pure creatine
# DMD patients = conditions: 5 g of creatine/day for 8 weeks, oral
Compound,performance in the object recognition task (CrT−/y mice),health and longevity (mice),serum 8-hydroxy-2′-deoxyguanosine (marker of oxidative DNA damage) [1],improvement in CTD patients (CTD patients),muscle Phosphocreatine/Inorganic Phosphate ratio (DMD patients),muscle strength in short term (DMD patients),tolerability (DMD patients; 18 patients vs placebo)
"CCCCCCCCCCCCOC(=O)CN(C)C(=N)N [DCE, dodecyl creatine ester]",significantly improves,,,,,,
"CN(CC(=O)O)C(=N)N [creatine, 2-1(methylguanidino) acetic acid]",,improves health and longevity,marked decrease,does not lead to any improvement,significantly improved,preserved,well tolerated
